The text below walks through data of patent US10017522B2, “Alpha helix mimetics and methods relating thereto” (PRISM BioLab Co., Ltd., priority 2009, dated 2018).

The test concerns Wnt signaling pathway. The test can be described thus: Reporter gene assay (SuperTOPFLASH luciferase, LiCl stimulated, Hek-293 STF1.1 cells). To be noted: Homo sapiens, HEK293; at the concentration of 10 μM; stably transfected cell line Hek-293, STF1.1; 20 mM LiCl medium added, 24 hours; read-out: inhibitory activity determined by reporter gene assay. In kind it is cell-based. As for the experimental part: Screening for inhibitory action of the Wnt signaling pathway can be carried out according to the following procedure using the stably transfected cell line Hek-293, STF1.1. • Growth Medium: DMEM, 10% FBS, Pen-Strep, supplemented with 400 μg/mL G418 to maintain selection of SuperTOPFLASH driven Luciferase gene • 1. On the day prior to assay, split cells into a white opaque 96-well plate at 20,000 cells per well in 200 μl of complete growth medium • 2. Incubate the plate overnight at 37° C., 5% CO2 and allow the cells to attach • 3. Next day, prepare the inhibitors to be tested in complete growth medium, without G418, at 2× the desired final concentration (all conditions are done in duplicates) • 4. Carefully remove the old medium from each well using a multiple pipettor • 5. […] Read plate on the Packard TopCount
In the tables, the compounds having inhibitory activity more than 50% at the concentration of 10 microM (μM) determined by reporter gene assay are shown below.
Screening for inhibitory action of the Wnt signaling pathway was carried out according to the following procedure using the stably transfected cell line Hek-293, STF1.1 • Growth Medium: DMEM, 10% FBS, Pen-Strep, supplemented with 400 μg/mL G418 to maintain selection of SuperTOPFLASH driven Luciferase gene • 1. […] Read plate on the Packard TopCount

Structures are written as SMILES. Bounds are passed on as bounds.

As to `CN1[C@@H](Cc2ccc(O)cc2)C(=O)N(Cc2cccc3ccccc23)CC2N(C(=O)NCc3ccccc3)CCC(=O)N21` (stereo partly drawn) [Example I-268, (2S)—N-benzyl-2-(4-hydroxybenzyl)-1-methyl-4-(naphthalen-1-ylmethyl)-3,9-dioxooctahydropyrimido[1,2-b][1,2,5]triazepine-6(7H)-carboxamide], the inhibition at 10 µM is no less than 50%.
